The results in this text go back to patent US4863874A, “Method for detecting phosphatidylinositol through binding to Concanavalin A” (The United States of America as represented by the …, priority 1986, dated 1989).

For orientation: pIC50 means the negative decadic logarithm of the IC50, by convention in mol/L. Read a low pIC50 as a high IC50. In general, pKd refers to the Kd on a negative log10 scale, so that one unit is a factor of ten.

pIC50, pKd: −log10 of the molar value. Like-named read-outs stand apart in the source and are kept apart here.

Assay [1] deals with T1, Con A (Canavalia ensiformis, UniProt P02866).
T1 construct: purchased Sigma Chemical Co., St. Louis, MO
Nature of the assay: Inhibition of Con A binding to liposomes. The method, then:
Similar incubations as those described in FIG. 1 were set up with liposomes and Con A. α-MM (FIG. 2a) or myo-inositol (FIG. 2b) were used as inhibitors in the concentrations indicated.
Liposomes containing PL (DMPC, or DMPC/PI) and cholesterol in molar ratios 2/1.5 were used throughout. When PI was included in the liposomes, it was in a 1/1 molar ratio with DMPC. Preparation of liposomes (multilamellar vesicles) is reported in detail (Alving, C. R., Shichijo, S., and Mattsby-Baltzer, I. (1984) in Liposome Technology, (G. Gregoriadis, edition), Vol. II, pages 157-175, CRC, Boca Raton, FL). Briefly, lipids (PLs and cholesterol) were dried in vacuo in pear-shaped flasks and dispersed in a small volume of 0.15M NaCl with the aid of a few acid washed glass beads. The final PL concentration in the aqueous dispersion was 10 mM.
(§1) Studies on the binding of Con A to liposomes were performed as follows: Con A and inhibitors (if present) in the concentrations indicated in the individual figures were incubated with 100 μl of liposomes in a final volume of 1.0 ml of buffer for 45 minutes at 25° C. After incubation, liposomes were washed twice with 2 ml portions of 0.9% NaCl-0.01M NaHCO3 (pH 7.0) and collected by centrifugation at 140,000 g for 5 minutes. Bicarbonate-saline was the buffer used throughout for solution, washing and dilutions. Specific protein binding to liposomes was measured by a Lowry assay adapted to measurement of proteins on liposomes as described previously (Alving, C. R., and Kinsky, S. C. (1971) Immunochemistry, Vol. 8, pages 325-343).
Con A binding to mannose is widely accepted as the major binding specificity for Con A, and inhibition of Con A by α-MM is often used as a criterion for specificity of binding (Lis, H. and Sharon, N. (1973) Ann. Rev. Biochem., Vol. 42, pages 541-574). […] Since Con A binding was increased by the presence of PI in the liposomes we tried to inhibit it by adding increasing concentrations of myo-inositol as a soluble inhibitor. […] Therefore we conclude that the binding of Con A to PI is specific and probably involves the inositol moiety of PI.

The target in assay [2] is T1, Con A. Nature of the assay: Inhibition of Con A binding to liposomes by mixtures of α-MM and myo-inositol. The following applies: for relative inhibitory potency, PI present in the liposomes: liposomes containing PI; for type of inhibition on simultaneous addition of both inhibitors: simultaneous addition of both inhibitors to Con A and liposomes. The method, then: Similar incubations as those described in FIG. 1 were set up with liposomes and Con A. Myo-inositol and α-MM were mixed together as inhibitors in the concentrations indicated.
as §1
In order to characterize further the binding of Con A to liposomal PLs, and especially to PI, we mixed varying concentrations of α-MM with varrying concentrations of myo-inositol. Our reasoning was that if α-MM and myo-inositol complete for the same binding site we would record similar inhibitions to those shown in FIG. 2. […] The opposite occurred with liposomes lacking PI.

In another assay the test system is mouse spleen lymphocytes. Description: Suppression of Con A-induced lymphocyte mitogenesis ([3H]-thymidine). The class given is cell-based. The following applies: for DPM × 10^-3 ([3H]-thymidine, DNA synthesis): geometric mean of quadruplicate ±1 S E, no inhibitor 124 ± 10; for inhibition at 40000 µM: Mus musculus, Lymphocyte, read-out: % SUPPRESSION; for inhibition of Con A-induced lymphocyte mitogenesis: added simultaneously with Con A, in words. The source says: Mitogenic determination were made on 12 weeks old male C3 HeB/FeJ mouse (Jackson Laboratory, Bar Harbour, ME) spleen cells. The method used for cell preparation and assay of mitogenic activity is described elsewhere (Richardson, E. C., and Alving, C. R. (1984) Rev. Infect. Dis., Vol. 6, pages 532-534). Briefly spleen cells were extracted into HSB (HEM Research Inc., Rockville, MD), purified on a Ficoll-Hypaque solution, washed twice with HBS and suspended in a medium containing Eagles MEM with Earle's salts (GIBCO, Grand Island, NY), penicillin 100 μg/ml and streptomycin 100 μg/ml (GIBCO), 5×10^-5 M 2-mercaptoethanol (Matheson, Coleman and Bell, Norwood, OH) and 5% fetal bovine serum (MBA, Walkersville, MD). Cultures containing 2×10^5 viable cells/0.2 ml were prepared in 96 wells microtiter plates (Linbro Chemical Co., New Haven, CT) containing Con A ([…] Con A protein/ml culture) with either 40 μmoles/ml α-MM or myo-inositol. Cultures were incubated at 37° C. in 5% CO2 and air for 48 hours. Four hours prior to harvesting, the cells were pulsed with 1 μCi of [^3 H]-thymidine, harvested on glass fiber filters with a cell harvester and the radioactivity determined by liquid scintillation.
Cultures containing 2×10^5 mouse spleen lymphocytes in 0.2 ml medium were stimulated with 6 μg Con A/ml in the presence of 40 μmoles/ml of α-MM or myo-inositol and incubated for 48 hours. DNA synthesis was determined by pulsing the cultures 4 hours prior to harvesting with 1 μCi of [^3 H]-thymidine. The values represent the geometric mean of quadruplicate cultures ±1 S E.

Assay [3] deals with T1, Con A. Nature of the assay: Binding to Con A by equilibrium dialysis, Scatchard plot. The source says:
Equilibrium dialysis (microtechnique), as described by Karush, et al. (Karush, F., Karush, S. S. and Eisen, H. N. (1971) in Methods of Immunology and Immunochemistry (C. A. Williams, and M. W. Chase, Edition), Vol. III, pages 383-394, Academic Press, NY) was used to determine the binding of Con A to α-mannose, α-L-fucose, or myo-inositol. The data were plotted according to the method of Scatchard (Scatchard, G. (1949) Ann. N.Y. Acad. Sci., Vol. 51, pages 660-672).
The binding of Con A to α-D-[^3 H]-mannose or myo-[^3 H]-inositol in 0.01M bicarbonate-saline, pH 7.0, at room temperature was investigated by equilibrium dialysis. […] The ratio of the molar concentration of the bound sugar to that of protein is represented by r, c is the molar concentration of free sugar, n is the number of binding sites and K, the binding constant. A molecular weight of 108,000 for Con A was used in the calculations since Con A is a tetramer at neutral pH and the monomer mol wt. is 27,000.

Setting [4] is: myo-inositol and α-MM simultaneously used, FIG. 4.
[5] abbreviates: 6 μg Con A/ml, 40 μmoles/ml inhibitor, 48 hours.

Consider `O[C@H]1[C@H](O)[C@@H](O)[C@H](O)[C@@H](O)[C@H]1O` [myo-inositol], for which the pIC50 on Con A [1] was 2.00. Moreover, on Con A [2] (setting [4]), the “relative inhibitory potency, PI present in the liposomes” value was “the more potent inhibitor”. Besides, on Con A [2], the “type of inhibition on simultaneous addition of both inhibitors” value is on record as “non-competitive”. In the assay with mouse spleen lymphocytes (setting [5]), the “DPM × 10^-3 ([3H]-thymidine, DNA synthesis)” value was 86 ± 8 DPM × 10^-3 and the inhibition at 40000 µM stood at 31%. Moreover, the “inhibition of Con A-induced lymphocyte mitogenesis” value in the assay with mouse spleen lymphocytes is reported as “significant inhibition was observed”. The compound also had a pKd on Con A [3] of 3.11.

For `CO[C@H]1O[C@H](CO)[C@@H](O)[C@H](O)[C@@H]1O` [α-MM, α-methyl mannoside], the inhibition at 1000 µM at Con A [1] (read-out: inhibition of Con A binding to DMPC liposomes) and on Con A [1] (read-out: inhibition of Con A binding to DMPC/PI liposomes) was about 50% each time. Further, the “relative inhibitory potency, PI present in the liposomes” value on Con A [2] (setting [4]) is on record as “could not provide similar inhibition”. Also, the “relative inhibitory potency, PI absent from liposomes” value on Con A [2] (myo-inositol and α-MM simultaneously used, liposomes lacking PI, FIG. 4) is listed as “a more potent inhibitor than inositol”. In addition, the “type of inhibition on simultaneous addition of both inhibitors” value on Con A [2] was “non-competitive”. Besides, the “DPM × 10^-3 ([3H]-thymidine, DNA synthesis)” value with mouse spleen lymphocytes (setting [5]) amounted to 1.3 ± 0.2 DPM × 10^-3. The inhibition at 40000 µM with mouse spleen lymphocytes (48 h) is 99%. The “inhibition of Con A-induced lymphocyte mitogenesis” value in the assay on mouse spleen lymphocytes is recorded as “more effective inhibitor than myo-inositol”.

Turning to `C[C@@H]1O[C@@H](O)[C@@H](O)[C@H](O)[C@@H]1O` [α-L-fucose], the “inhibition of Con A binding to liposomes containing PI” value on Con A [1] (increasing concentrations, liposomes containing PI) is given as “no inhibition was observed”. The “inhibition of Con A binding to liposomes lacking PI” value on Con A [1] (increasing concentrations, liposomes lacking PI) is recorded as “no inhibition was observed”. In addition, the “inhibition of Con A-induced lymphocyte mitogenesis” value in the assay on mouse spleen lymphocytes is “No inhibition”. Moreover, the “binding to Con A” value on Con A [3] (0.01M bicarbonate-saline, pH 7.0, room temperature) is “No binding could be detected”.
